Key:
[1] = target: T1, Gamma-aminobutyric acid receptor subunit alpha-5 (Homo sapiens, UniProt P31644); assay: Inhibition of [3H]flumazenil binding to recombinant GABA-A receptor alpha-5 subunit in cerebellum; format: tissue-based
T1 sequence (P31644 whole entry): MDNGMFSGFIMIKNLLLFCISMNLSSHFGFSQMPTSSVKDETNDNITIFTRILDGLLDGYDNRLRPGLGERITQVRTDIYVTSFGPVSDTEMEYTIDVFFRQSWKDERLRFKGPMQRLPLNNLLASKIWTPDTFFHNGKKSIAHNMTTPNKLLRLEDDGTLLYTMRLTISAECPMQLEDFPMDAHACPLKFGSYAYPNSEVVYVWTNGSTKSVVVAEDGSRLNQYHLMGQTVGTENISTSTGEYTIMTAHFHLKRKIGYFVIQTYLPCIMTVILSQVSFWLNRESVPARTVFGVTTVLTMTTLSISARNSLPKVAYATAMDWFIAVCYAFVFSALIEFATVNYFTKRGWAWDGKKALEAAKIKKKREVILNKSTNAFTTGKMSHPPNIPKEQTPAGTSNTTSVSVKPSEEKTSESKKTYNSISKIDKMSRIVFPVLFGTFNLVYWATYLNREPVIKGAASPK

[2] = target: T1, Gamma-aminobutyric acid receptor subunit alpha-5; assay: Inhibition of [3H]flumazenil binding to recombinant GABA-A receptor alpha-5 subunit in spinal cord; format: tissue-based

CCCC(=O)N(C)Cc1c(-c2ccc(Cl)cc2)nc2ccccn12
IC50 [1]: 2.7 nM | IC50 [2]: 4.6 nM

Source: ChEMBL document CHEMBL1130521, “A conformational study of ligands for omega modulatory sites of GABAa receptors by NOESY NMR spectroscopy and distance geometry” (Bioorg Med Chem Lett, 1997)
